The results in this text go back to the supplement of paper PMC12137928.

Structures can show the parent of a compound that is named as a salt.

For this test, the system named is HCT116. The settings on record: 72 h. Summed up: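 HCT116 cells were seeded at 250 per well in 1536-well plates with 5 h allowed for attachment. CellTiter-Glo luminescence was normalized against vehicle (0%) and positive control (-100%) before pattern correction. The IC50 and maximal efficacy figures derive from four-parameter Hill fits.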

As to `COC(=O)N[C@H](C(=O)N1CC2(CC2)C[C@H]1c1nc(-c2ccc3c(c2)C(F)(F)c2cc(-c4ccc5[nH]c([C@@H]6[C@H]7CC[C@H](C7)N6C(=O)[C@@H](NC(=O)OC)C(C)C)nc5c4)ccc2-3)c[nH]1)C(C)C` [Ledipasvir (GS 5885)], the IC50 cell viability reads like this: (ICRF193 0 nM) above 45.8 µM; (ICRF193 200 nM) above 45.8 µM.
For `Nc1cccc2c1CN(C1CCC(=O)NC1=O)C2=O` (centres undefined) [Lenalidomide], the IC50 cell viability is above 45.8 µM (ICRF193 0 nM) and above 45.8 µM (ICRF193 200 nM).
With `Cc1oc(=O)oc1COC(=O)[C@@H]1N2C(=O)[C@@H](NC(=O)[C@H](N)c3ccccc3)[C@H]2SC1(C)C` [Lenampicillin hydrochloride], the IC50 cell viability runs as follows: (ICRF193 0 nM) above 45.8 µM; (ICRF193 200 nM) above 45.8 µM.
On to `O=C(CCCN1CCC(C(=O)c2ccc(F)cc2)CC1)c1ccc(F)cc1` [Lenperone Hydrochloride], for which the IC50 cell viability by setting is: (ICRF193 0 nM) above 45.8 µM; (ICRF193 200 nM) above 45.8 µM.
Take `COc1cc2nccc(Oc3ccc(NC(=O)NC4CC4)c(Cl)c3)c2cc1C(N)=O` [Lenvatinib]: the IC50 cell viability is above 45.8 µM (ICRF193 0 nM) and above 45.8 µM (ICRF193 200 nM).
On to `O=C(O)CSc1nnc(Br)n1-c1ccc(C2CC2)c2ccccc12` [Lesinurad (sodium)], for which the IC50 cell viability runs as follows: (ICRF193 0 nM) above 45.8 µM; (ICRF193 200 nM) above 45.8 µM.
On to `COc1cccc(N2CCN(C3=Nc4c(F)cccc4[C@H](CC(=O)O)N3c3cc(C(F)(F)F)ccc3OC)CC2)c1` [Letermovir], for which the IC50 cell viability is above 45.8 µM (ICRF193 0 nM) and above 45.8 µM (ICRF193 200 nM).
In the case of `N#Cc1ccc(C(c2ccc(C#N)cc2)n2cncn2)cc1` [Letrozole], the IC50 cell viability is, setting by setting: (ICRF193 0 nM) above 45.8 µM; (ICRF193 200 nM) above 45.8 µM.
Regarding `c1ccc([C@H]2CN3CCSC3=N2)cc1` [Levamisole hydrochloride], the IC50 cell viability (ICRF193 0 nM) is above 45.8 µM and the IC50 cell viability (ICRF193 200 nM) is above 45.8 µM.
On to `CC[C@@H](C(N)=O)N1CCCC1=O` [Levetiracetam], for which the IC50 cell viability (ICRF193 0 nM) was above 45.8 µM and the IC50 cell viability (ICRF193 200 nM) was above 45.8 µM.
Regarding `CC(C)(C)NC[C@H](O)COc1cccc2c1CCCC2=O` [Levobunolol hydrochloride], the IC50 cell viability runs as follows: (ICRF193 0 nM) above 45.8 µM; (ICRF193 200 nM) above 45.8 µM.
As to `CCCCN1CCCC[C@H]1C(=O)Nc1c(C)cccc1C` [Levobupivacaine hydrochloride], the IC50 cell viability was above 45.8 µM (ICRF193 0 nM) and above 45.8 µM (ICRF193 200 nM).
As to `C[C@@H]1CN([C@H]2CC[C@](C#N)(c3ccc(F)cc3)CC2)CC[C@]1(C(=O)O)c1ccccc1` [Levocabastine hydrochloride], the IC50 cell viability reads like this: (ICRF193 0 nM) above 45.8 µM; (ICRF193 200 nM) above 45.8 µM.
For the compound `N[C@@H](Cc1ccc(O)c(O)c1)C(=O)O` [Levodopa], the IC50 cell viability runs as follows: (ICRF193 0 nM) above 45.8 µM; (ICRF193 200 nM) above 45.8 µM.
`C[C@H]1COc2c(N3CCN(C)CC3)c(F)cc3c(=O)c(C(=O)O)cn1c23` [Levofloxacin]: the IC50 cell viability was above 45.8 µM (ICRF193 0 nM) and above 45.8 µM (ICRF193 200 nM).
For the compound `CN1c2c([nH]c(N)nc2=O)NC[C@@H]1CNc1ccc(C(=O)N[C@@H](CCC(=O)O)C(=O)O)cc1` [Levomefolate calcium], the IC50 cell viability was above 45.8 µM (ICRF193 0 nM) and above 45.8 µM (ICRF193 200 nM).
On to `C[C@H](N)[C@H](O)c1ccc(O)c(O)c1` [Levonordefrin], for which the IC50 cell viability is above 45.8 µM (ICRF193 0 nM) and above 45.8 µM (ICRF193 200 nM).
With `CCC(=O)O[C@@](Cc1ccccc1)(c1ccccc1)[C@@H](C)CN(C)C` [Levopropoxyphene napsylate], the IC50 cell viability by setting is: (ICRF193 0 nM) above 45.8 µM; (ICRF193 200 nM) above 45.8 µM.
Turning to `CCN1CCC[C@H]1CNC(=O)c1cc(S(N)(=O)=O)ccc1OC` [Levosulpiride], the IC50 cell viability is above 45.8 µM (ICRF193 0 nM) and above 45.8 µM (ICRF193 200 nM).
`CNC(=O)c1cnn(-c2nc(N)c3ncn([C@@H]4O[C@H](CO)[C@@H](O)[C@H]4O)c3n2)c1` [Lexiscan]: the IC50 cell viability reads like this: (ICRF193 0 nM) above 45.8 µM; (ICRF193 200 nM) above 45.8 µM.
As to `Clc1cccc(C(c2ccc3[nH]cnc3c2)n2ccnc2)c1` (centres undefined) [Liarozole], the IC50 cell viability reads like this: (ICRF193 0 nM) above 45.8 µM; (ICRF193 200 nM) above 45.8 µM.
Turning to `CCN(CC)CC(=O)Nc1c(C)cccc1C` [Lidocaine], the IC50 cell viability reads like this: (ICRF193 0 nM) above 45.8 µM; (ICRF193 200 nM) above 45.8 µM.
As to `CC1(C)O[C@H]2CC(=O)OC[C@]23[C@H]2CC[C@@]4(C)[C@H](c5ccoc5)OC(=O)[C@H]5O[C@]54[C@]2(C)C(=O)C[C@@H]13` [Limoni], the IC50 cell viability (ICRF193 0 nM) is above 45.8 µM and the IC50 cell viability (ICRF193 200 nM) was above 45.8 µM.
With `CC#CCn1c(N2CCC[C@@H](N)C2)nc2c1c(=O)n(Cc1nc(C)c3ccccc3n1)c(=O)n2C` [Linagliptin], the IC50 cell viability is, setting by setting: (ICRF193 0 nM) above 45.8 µM; (ICRF193 200 nM) above 45.8 µM.
`CCC[C@@H]1C[C@@H](C(=O)N[C@@H]([C@H]2O[C@H](SC)[C@H](O)[C@@H](O)[C@H]2O)[C@@H](C)O)N(C)C1` [Lincomycin hydrochloride]: the IC50 cell viability runs as follows: (ICRF193 0 nM) above 45.8 µM; (ICRF193 200 nM) above 45.8 µM.
As to `CC(=O)NC[C@H]1CN(c2ccc(N3CCOCC3)c(F)c2)C(=O)O1` [Linezolid], the IC50 cell viability by setting is: (ICRF193 0 nM) above 45.8 µM; (ICRF193 200 nM) above 45.8 µM.
In the case of `CC/C=C\C/C=C\C/C=C\CCCCCCCC(=O)O` [Linolenic acid], the IC50 cell viability was above 45.8 µM (ICRF193 0 nM) and above 45.8 µM (ICRF193 200 nM).
Turning to `N[C@@H](Cc1cc(I)c(Oc2ccc(O)c(I)c2)c(I)c1)C(=O)O` [Liothyronine Sodium], the IC50 cell viability is, setting by setting: (ICRF193 0 nM) above 45.8 µM; (ICRF193 200 nM) above 45.8 µM.
`COc1cccc(N(C)C(=S)Oc2ccc3c(c2)CCCC3)n1` [Liranaftate]: the IC50 cell viability is above 45.8 µM (ICRF193 0 nM) and above 45.8 µM (ICRF193 200 nM).
On to `NCCCC[C@H](N[C@@H](CCc1ccccc1)C(=O)O)C(=O)N1CCC[C@H]1C(=O)O` [Lisinopril dihydrate], for which the IC50 cell viability was above 45.8 µM (ICRF193 0 nM) and above 45.8 µM (ICRF193 200 nM).
For the compound `O=C(O)c1ccccc1Nc1cc(Cl)ccc1C(=O)O` [Lobenzarit sodium], the IC50 cell viability (ICRF193 0 nM) was above 45.8 µM and the IC50 cell viability (ICRF193 200 nM) was above 45.8 µM.
In the case of `N#Cc1cc(NC(=O)C(=O)O)c(Cl)c(NC(=O)C(=O)O)c1` [Lodoxamide], the IC50 cell viability runs as follows: (ICRF193 0 nM) above 45.8 µM; (ICRF193 200 nM) above 45.8 µM.
`CN(CCCN1c2ccccc2CCc2ccccc21)CC(=O)c1ccc(Cl)cc1` [Lofepramine hydrochloride]: the IC50 cell viability reads like this: (ICRF193 0 nM) above 45.8 µM; (ICRF193 200 nM) above 45.8 µM.
For `CC(Oc1c(Cl)cccc1Cl)C1=NCCN1` (centres undefined) [Lofexidine], the IC50 cell viability (ICRF193 0 nM) is above 45.8 µM and the IC50 cell viability (ICRF193 200 nM) is above 45.8 µM.
Regarding `CCn1cc(C(=O)O)c(=O)c2cc(F)c(N3CCNC(C)C3)c(F)c21` (centres undefined) [Lomefloxacin hydrochloride], the IC50 cell viability is above 45.8 µM (ICRF193 0 nM) and above 45.8 µM (ICRF193 200 nM).
Consider `O=NN(CCCl)C(=O)NC1CCCCC1` [Lomustine], for which the IC50 cell viability was above 45.8 µM (ICRF193 0 nM) and above 45.8 µM (ICRF193 200 nM).
With `N[C@@H](C(=O)N[C@@H]1C(=O)N2C(C(=O)O)=C(Cl)CC[C@H]12)c1ccccc1` [Loracarbef], the IC50 cell viability was above 45.8 µM (ICRF193 0 nM) and above 45.8 µM (ICRF193 200 nM).
Consider `CN1C(C(=O)Nc2ccccn2)=C(O)c2sc(Cl)cc2S1(=O)=O` [Lornoxicam], for which the IC50 cell viability is, setting by setting: (ICRF193 0 nM) above 45.8 µM; (ICRF193 200 nM) above 45.8 µM.
As to `CCCCc1nc(Cl)c(CO)n1Cc1ccc(-c2ccccc2-c2nnn[nH]2)cc1` [Losartan], the IC50 cell viability by setting is: (ICRF193 0 nM) above 45.8 µM; (ICRF193 200 nM) above 45.8 µM.
On to `CCOC(=O)O[C@]1(C(=O)OCCl)CC[C@H]2[C@@H]3CCC4=CC(=O)C=C[C@]4(C)[C@H]3[C@@H](O)C[C@@]21C` [Loteprednol etabonate], for which the IC50 cell viability by setting is: (ICRF193 0 nM) above 45.8 µM; (ICRF193 200 nM) above 45.8 µM.
For `CN1CCN(C2=Nc3ccccc3Oc3ccc(Cl)cc32)CC1` [Loxapine succinate], the IC50 cell viability reads like this: (ICRF193 0 nM) above 45.8 µM; (ICRF193 200 nM) above 45.8 µM.
With `CCCCCN(CCCOC)C(=O)C(CCC(=O)O)NC(=O)c1ccc(Cl)c(Cl)c1` (centres undefined) [Loxiglumide], the IC50 cell viability is above 45.8 µM (ICRF193 0 nM) and above 45.8 µM (ICRF193 200 nM).
The compound `CC(C(=O)O)c1ccc(CC2CCCC2=O)cc1` (centres undefined) [Loxoprofen] came in with an IC50 cell viability (ICRF193 0 nM) above 45.8 µM and an IC50 cell viability (ICRF193 200 nM) above 45.8 µM.
Turning to `CCCCC(F)(F)[C@@]1(O)CC[C@H]2[C@@H](CC(=O)[C@@H]2CCCCCCC(=O)O)O1` [Lubiprostone], the IC50 cell viability reads like this: (ICRF193 0 nM) above 45.8 µM; (ICRF193 200 nM) above 45.8 µM.
Take `Cc1ccc(NC(=O)C2(c3ccc4c(c3)OC(F)(F)O4)CC2)nc1-c1cccc(C(=O)O)c1` [Lumacaftor]: the IC50 cell viability by setting is: (ICRF193 0 nM) above 45.8 µM; (ICRF193 200 nM) above 45.8 µM.
In the case of `Cc1ccc(Nc2c(F)cccc2Cl)c(CC(=O)O)c1` [Lumiracoxib], the IC50 cell viability (ICRF193 0 nM) is above 45.8 µM and the IC50 cell viability (ICRF193 200 nM) was above 45.8 µM.
With `CCCCCCO[C@@H](C)c1cccc(-c2csc(NC(=O)c3cc(Cl)c(/C=C(\C)C(=O)O)c(Cl)c3)n2)c1OC` [Lusutrombopag], the IC50 cell viability was above 45.8 µM (ICRF193 0 nM) and above 45.8 µM (ICRF193 200 nM).
As for `CC(C)=CCC/C(C)=C/C=C/C(C)=C/C=C/C(C)=C/C=C/C=C(C)/C=C/C=C(C)/C=C/C=C(\C)CCC=C(C)C` [Lycopene], the IC50 cell viability was above 45.8 µM (ICRF193 0 nM) and above 45.8 µM (ICRF193 200 nM).
`CN(C)[C@@H]1C(O)=C(C(=O)NCNCCCC[C@H](N)C(=O)O)C(=O)[C@@]2(O)C(O)=C3C(=O)c4c(O)cccc4[C@@](C)(O)[C@H]3C[C@@H]12` [Lymecycline]: the IC50 cell viability was above 45.8 µM (ICRF193 0 nM) and above 45.8 µM (ICRF193 200 nM).
Take `C#C[C@]1(O)CC[C@H]2[C@@H]3CCC4=CCCC[C@@H]4[C@H]3CC[C@@]21C` [Lynestrenol]: the IC50 cell viability is above 45.8 µM (ICRF193 0 nM) and above 45.8 µM (ICRF193 200 nM).
As to `Cc1cnc(NC(=O)C2=C(O)c3ccccc3S(=O)(=O)N2C)s1` [MELOXICAM SODIUM], the IC50 cell viability runs as follows: (ICRF193 0 nM) above 45.8 µM; (ICRF193 200 nM) above 45.8 µM.
With `Cc1cccc(C)c1NC(=O)C1CCCCN1C` (centres undefined) [MEPIVACAINE HYDROCHLORIDE], the IC50 cell viability (ICRF193 0 nM) was above 45.8 µM and the IC50 cell viability (ICRF193 200 nM) was above 45.8 µM.
